Like-named read-outs stand apart in the source and are kept apart here. Where no end group is shown, it is not given here.
Experiments:
[1] = test system: panel of 30 type cultures; assay: I_score ranking from the MICs of 30 type cultures; conditions: number of cultures inhibited with the lowest MIC among the five peptides
BALB/c mice [2] = assay: Single-dose in vivo toxicity, LD50 determination; design: species or system mouse
BALB/c mice [3] = assay: Multidose cumulative toxicity, mouse survival; type: in vivo; conditions: repeated maximum sublethal doses
BALB/c mice [4] = assay: Kidney and liver histopathology after multidose treatment; type: in vivo, mouse; conditions: after 11 maximum sublethal doses
A. baumannii (P1270) [5] = assay: Radiolabeled phosphate leakage radioassay; type: cell-based; conditions: in 60 min; Ω76 32 mg/liter, colistin 5 mg/liter
[6] = cited from earlier work
[7] = clinical dose, mouse serum; cited from earlier work
A. baumannii (P1270) [8] = assay: Time-kill curves in ex vivo whole human blood; conditions: in 60 min; Ω76 32 mg/liter, colistin 5 mg/liter
[9] = cited from earlier work; remark: listed apart in the source
[10] = Single-dose in vivo toxicity, LD50 determination; design: species or system mouse; conditions: BALB/c, mouse, in vivo, ip
[11] = clinical dose, human volunteers; cited from earlier work
[12] = in 4 hours; cited from earlier work
[13] = young patient cohort, Walter Reed Army Medical Center

For IKALGKKLRKGKKKIGKKVK [Ω93], the I_score [1] was 1.

With colistin the “LD50 (median lethal dose)” value (BALB/c mice [2]; intraperitoneal, monitored 5 days, linear interpolation) was 30 mg/kg, the maximum sublethal dose (BALB/c mice [2]; intraperitoneal, single dose) was 16 mg/kg and the “mortality (mice)” value (BALB/c mice [2]; single dose of 32 mg/kg) was 3 of 5. For the same compound, the mortality in mice (BALB/c mice [3]) was 50%, the kidney histology (BALB/c mice [4]) was “extensive renal damage” and the liver histology (BALB/c mice [4]) was “displaying no damage”. For the same compound, the intracellular phosphate lost (A. baumannii (P1270) [5]) was 25%, the acute kidney injury ([6]; Korean elderly patient cohort, treated for ≥72 hours) was 54.6% and the acute kidney injury ([6]; Turkish elderly patient cohort) was 46.1%. The acute kidney injury [6, 13] was 45%, the “cessation of treatment due to nephrotoxicity” value [6, 13] was 21% and the “time above MIC concentrations in serum” value [7] was 100 min. The CFU reduction (A. baumannii (P1270) [8]) was 32 fold.

In the case of gramicidin S, the hemolytic properties [9] is given as “display hemolytic properties”.

Compound “H-GIGKFLKKAKKFGKAFVKILKK-NH2 [Pexiganan]” has an LD50 at 5 days [10] of 60 mg/kg and a mortality in mice (BALB/c mice [3]) of 100%.

For `C[C@@H](O)[C@H]1C(=O)N2C(C(=O)O)=C(S[C@@H]3CN[C@H](C(=O)N(C)C)C3)[C@H](C)[C@H]12` [meropenem], the “time above MIC concentrations in serum” value [11] is given as 5 h and the CFU reduction [12] is given as 100 fold.

In the case of lactoferrampin, the hemolytic properties [9] is listed as “display hemolytic properties”.

For melittin, the hemolytic properties [9] is listed as “display hemolytic properties”.

— article PMC6656545 (Science Advances, 2019)
